{
  "source": "patent US20170311606A1",
  "about": "“SYNERGISTIC BACILLUS THURINGIENSIS SUBSP. KURSTAKI AND FLUBENDIAMIDE MIXTURES FOR BEET ARMYWORM, SOYBEAN LOOPER, CORN EARWORM, AND CABBAGE LOOPER CONTROL” (priority 2016, published 2017)",
  "key": {"diamondback moth larvae": {"test_system": "diamondback moth larvae", "test": "Leaf dip bioassay, diamondback moth larvae", "format": "in vivo", "conditions": "Plutella xylostella, foliar, Btk 0.54 ppm, flubendiamide 0.215 ppm, alone or mixed, read-out: % Efficacy"}, "[1]": {"test_system": "southwestern corn borer larvae", "test": "Leaf dip bioassay, southwestern corn borer larvae", "format": "in vivo", "conditions": "foliar, Btk 0.54 ppm, flubendiamide 0.215 ppm, alone or mixed, read-out: % Efficacy", "protocol": "(§1) The present invention is not limited to the products or formulation types used herein. In each example below, the studies were conducted as follows.\n(§2) For these tests, standardized laboratory leaf dip methods were used to inoculate plant material with treatment(s). Dry, treated leaves were placed into Petri dishes (100×25 mm) containing filter paper wetted with 500 μl of distilled H2O (“dH2O”). Each dish was then infested with between 5 and 10 larvae, dependent on species. Efficacy ratings were taken at specified intervals. Synergy ratings were calculated for each test.\n(§3) % Cexp=A+B−(AB/100), where % Cexp is the expected efficacy and “in which A and B are the control levels given by the single [insecticides]. […] Adopting a conservative approach, Applicant determined synergy to be present at ratios of >1.15."}, "sugarcane borer larvae": {"test_system": "sugarcane borer larvae", "test": "Leaf dip bioassay, sugarcane borer larvae", "format": "in vivo", "conditions": "foliar, Btk 0.54 ppm, flubendiamide 2.15 ppm, alone or mixed, read-out: % Efficacy", "protocol": "as §1, §2, §3"}, "cabbage looper larvae": {"test_system": "cabbage looper larvae", "test": "Leaf dip bioassay, cabbage looper larvae", "format": "in vivo", "conditions": "Trichoplusia ni, foliar, Btk 0.54 ppm, flubendiamide 0.49 ppm, alone or mixed, read-out: % Efficacy", "protocol": "as §1, §2, §3"}, "soybean looper larvae": {"test_system": "soybean looper larvae", "test": "Leaf dip bioassay, soybean looper larvae", "format": "in vivo, Chrysodeixis includens", "conditions": "foliar, Btk 0.54 ppm, flubendiamide 3.9 ppm, alone or mixed, read-out: % Efficacy", "protocol": "as §1, §2, §3"}, "beet armyworm larvae": {"test_system": "beet armyworm larvae", "test": "Leaf dip bioassay, beet armyworm larvae", "format": "in vivo", "conditions": "Spodoptera exigua, foliar, alone or mixed, read-out: % Efficacy", "protocol": "as §1, §2, §3"}, "corn earworm larvae": {"test_system": "corn earworm larvae", "test": "Leaf dip bioassay, corn earworm larvae", "format": "in vivo", "conditions": "Helicoverpa zea, foliar, Btk 0.54 ppm, flubendiamide 0.975 ppm, alone or mixed, read-out: % Efficacy", "protocol": "as §1, §2, §3"}},
  "note": "Read-outs that look alike come from different tables or passages of the source.",
  "data": [
    {"compound": "Cc1cc(C(F)(C(F)(F)F)C(F)(F)F)ccc1NC(=O)c1cccc(I)c1C(=O)NC(C)(C)CS(C)(=O)=O", "note": "[Flubendiamide, 3-iodo-N′-(2-mesyl-1,1-dimethylethyl)-N-{4-[1,2,2,2-tetrafluoro-1-(trifluoromethyl)ethyl]-o-tolyl}phthalamide]", "values": [
      {"measurement": "Emax at 0.215 ppm", "setting": "diamondback moth larvae; 24 h after treatment", "value": 7, "unit": "%"},
      {"measurement": "Emax at 0.215 ppm", "setting": "diamondback moth larvae; 48 h after treatment", "value": 19, "unit": "%"},
      {"measurement": "Emax at 0.215 ppm", "setting": "[1]; 24 h after treatment", "value": 40, "unit": "%"},
      {"measurement": "Emax at 0.215 ppm", "setting": "[1]; 48 h after treatment", "value": 48, "unit": "%"},
      {"measurement": "Emax at 2.15 ppm", "setting": "sugarcane borer larvae; 24 h after treatment", "value": 28, "unit": "%"},
      {"measurement": "Emax at 2.15 ppm", "setting": "sugarcane borer larvae; 48 h after treatment", "value": 40, "unit": "%"},
      {"measurement": "Emax at 0.49 ppm", "setting": "cabbage looper larvae; 24 h after treatment", "value": 7, "unit": "%"},
      {"measurement": "Emax at 0.49 ppm", "setting": "cabbage looper larvae; 48 h after treatment", "value": 19, "unit": "%"},
      {"measurement": "Emax at 3.9 ppm", "setting": "soybean looper larvae; 24 h after treatment", "value": 4, "unit": "%"},
      {"measurement": "Emax at 3.9 ppm", "setting": "soybean looper larvae; 48 h after treatment", "value": 16, "unit": "%"},
      {"measurement": "Emax at 0.49 ppm", "setting": "beet armyworm larvae; 24 h after treatment", "value": 6, "unit": "%"},
      {"measurement": "Emax at 0.49 ppm", "setting": "beet armyworm larvae; 48 h after treatment", "value": 14, "unit": "%"},
      {"measurement": "Emax at 0.975 ppm", "setting": "corn earworm larvae; 24 h after treatment", "value": 14, "unit": "%"},
      {"measurement": "Emax at 0.975 ppm", "setting": "corn earworm larvae; 48 h after treatment", "value": 24, "unit": "%"}
    ]}
  ]
}
